# Values quoted from earlier work in patent US11345964B2, “BCR-ABL truncation mutations” (Quest Diagnostics Investments LLC, priority 2009, dated 2022).
# Counter-ions that a name gives are not always drawn. Like-named read-outs stand apart in the source and are kept apart here.
# System: patients with myeloproliferative diseases
# Conditions: imatinib therapy
smiles,measurement,setting,value
"Cc1ccc(NC(=O)c2ccc(CN3CCN(C)CC3)cc2)cc1Nc1nccc(-c2cccnc2)n1 [imatinib, imatinib mesylate]",Primary resistance (failure to achieve any hematologic response) rate,accelerated phase,9%
same,Secondary resistance (hematologic recurrence) rate,accelerated phase,32%
same,Primary resistance (failure to achieve any hematologic response) rate,blast phase,51%
same,Secondary resistance (hematologic recurrence) rate,blast phase,41%
same,Primary resistance (failure to achieve any hematologic response) rate,chronic phase,3%
same,Secondary resistance (hematologic recurrence) rate,chronic phase,22%
